According to publication PMC8196580, “Identification of Kaurane-Type Diterpenes as Inhibitors of Leishmania Pteridine Reductase I” (Molecules, 2021):
Read-outs that look alike come from different tables or passages of the source.

Key:
L. major [1] = assay: ChEMBL dataset of pIC50 values against L. major used for the RF model (Table S1); type: cell-based, Leishmania major; further: call rule not given here
Excerpt: From the ChEMBL database (https://www.ebi.ac.uk/chembl/, accessed on 10 January 2021), we selected a diverse set of 1085 structures that were initially classified according to their predicted activity against L. major.
Excluding these structures minimized the differences in activity values resulting from errors and differences in experimental protocols. […] Standardizer software [JChem, version 16.11.28 (2016), calculation module developed by ChemAxon, https://www.chemaxon.com/, accessed on 20 January 2021] was used to canonize all simplified molecular-input line-entry system (SMILES) codes. After duplicate structures were removed, those with higher pIC50 values were eliminated, facilitating the generation of more restrictive models.

L. major [2] = tested on: L. major; design: method as in ChEMBL; details: ref ChEMBL, cited from earlier work
[3] = Active/Inactive class assigned to the ChEMBL pIC50 value for Random forest model construction, ref ChEMBL
[4] = ChemBL structures with pIC50 values used for Random forest model construction, L. major
[5] = Active/Inactive class assigned to ChemBL structures for Random forest model construction (Table S1)
[6] = ChemBL structures with pIC50 values used for Random forest model construction (Table S1)

Row | Structure (SMILES) | Outcome (L. major [1]; [3]) | pIC50 Value (L. major [2]; [4]) | Outcome (L. major [1]; [5]) | pIC50 Value (L. major [2]; [6])
1 | CC1=N[C@H](C)Cc2c(-c3ccc(C(F)(F)F)cc3)ccc(O)c21 [CHEMBL1275619] | Inactive | 4.00 |  | 
2 | COc1ccc(/C=N/NC(=O)c2ccccc2OC)cc1Br [CHEMBL2382039] | Active | 5.12 |  | 
3 | COc1ccc(/C=N/NC(=O)c2ccccc2OC)cc1 [CHEMBL2382041] | Inactive | 4.40 |  | 
4 | CCOC(=O)C1=C(C)NC(=S)NC1c1cccc(O)c1 (centres unmarked) [CHEMBL236789] |  |  | Active | 5.65
5 | COc1cc(C)c(-c2ccc(O)c3c2C[C@@H](C)N[C@@H]3C)c2cccc(O)c12 [CHEMBL375542] | Inactive | 4.44 |  | 
6 | CC(=O)C1=C(C)NC(=O)NC1c1cccc([N+](=O)[O-])c1 (centres unmarked) [CHEMBL3785264] |  |  | Active | 5.61
7 | COc1cc(C)c(-c2ccc3cc(C)nc(C)c3c2O)c2cccc(O)c12 [CHEMBL222221] | Inactive | 4.49 |  | 
8 | Cl.N=C(N)c1ccc(N2CCN(c3nnc(-c4ccc([N+](=O)[O-])o4)s3)CC2)cc1 [CHEMBL1783200] | Inactive | 3.95 |  | 
9 | O=C(/C=C/c1ccc(-n2ccnc2)cc1)c1ccc(Cl)c(Cl)c1Cl [CHEMBL571575] |  |  | Active | 5.78
10 | O=[N+]([O-])c1ccc2nc(-c3ccccc3Cl)[nH]c2c1 [CHEMBL1947235] |  |  | Active | 5.48
11 | CC[C@H](CO)Nc1nc(NCc2cccc(C)c2O)c2ncn(C(C)C)c2n1 [CHEMBL3423079] | Inactive | 4.70 |  | 
12 | NP(=O)(OCc1cccc([N+](=O)[O-])c1)N(CCCl)CCCl (centres unmarked) [CHEMBL1256964] | Inactive | 4.52 |  | 
13 | COc1cc2c(c(OC)c1)C(C)N(c1ccc(OC)c3c(OC)cc(C)cc13)[C@H](C)C2 (some centres unmarked) [CHEMBL479850] | Inactive | 4.18 |  | 
14 | O=C(/C=C/c1ccc(-n2ccnc2)cc1)c1ccc(I)cc1 [CHEMBL570445] |  |  | Active | 5.64
15 | CN[C@@H](C)[C@H]1CC[C@H]2[C@@H]3CC[C@H]4C[C@@H](N(C)C(=O)c5ccccc5)CC[C@]4(C)[C@H]3CC[C@]12C [CHEMBL503323] | Active | 5.06 |  | 
16 | C[C@@H]1CC[C@@]2(OC1)O[C@H]1C[C@H]3C4=CCC5=CC(=O)[C@@H](O)C[C@]5(C)[C@H]4C[C@H](O)[C@]3(C)[C@H]1[C@@H]2C [CHEMBL455616] | Inactive | 4.15 |  | 
17 | COc1ccccc1C(=O)N/N=C/c1ccc(Br)c(F)c1 [CHEMBL2382032] | Inactive | 4.11 |  | 
18 | COc1ccccc1C(=O)N/N=C/c1ccncc1 [CHEMBL2382030] | Inactive | 4.12 |  | 
19 | CCCCCCN(C)c1ccc(Nc2c3ccccc3nc3ccccc23)cc1 [CHEMBL415472] |  |  | Active | 6.52
20 | COc1ccccc1C(=O)N/N=C/c1ccc(O)cc1 [CHEMBL2382049] | Inactive | 4.24 |  | 
21 | Clc1ccc(-c2nc3ccccc3[nH]2)cc1 [CHEMBL473163] |  |  | Active | 5.50

Row | Structure (SMILES) | Outcome (L. major [1]; [3]) | pIC50 Value (L. major [2]; [4]) | Outcome (L. major [1]; [5]) | pIC50 Value (L. major [2]; [6])
22 | Cc1ccc(Cn2cc(CNc3nnc(-c4ccc([N+](=O)[O-])o4)s3)nn2)cc1 [CHEMBL1951530] | Inactive | 4.91 |  | 
23 | COc1ccccc1C(=O)N/N=C/c1cc(O)ccc1O [CHEMBL2382047] | Inactive | 4.46 |  | 
24 | Fc1ccccc1-c1nc2ccccn2c1-c1cccnc1 [CHEMBL2151877] | Inactive | 4.46 |  | 
25 | Cc1ccc(C(=O)N2CCN(c3ccnc4cc(Cl)ccc34)CC2)cc1 [CHEMBL1256729] | Inactive | 4.15 |  | 
26 | CC(=O)C1=C(CNc2ccc(C(=O)/C=C/c3cccc([N+](=O)[O-])c3)cc2)N(C)C(=O)NC1c1ccccc1 (centres unmarked) [CHEMBL3786374] |  |  | Active | 5.88
27 | CCCCCCOc1ccc(Nc2c3ccccc3nc3ccccc23)cc1 [CHEMBL89758] |  |  | Active | 6.00
28 | COc1cc(OCC=C(C)C)ccc1C(=O)/C=C/c1ccc([N+](=O)[O-])cc1 [CHEMBL4161584] |  |  | Active | 5.48
29 | COc1cc2c(c(OC)c1)C(C)N(c1ccc(C(C)C)cc1)C(C)C2 (centres unmarked) [CHEMBL481808] | Inactive | 4.30 |  | 
30 | COc1cc(OC)c2c(C)[n+](-c3c(C)cccc3C)c(C)cc2c1.F[B-](F)(F)F [CHEMBL521247] |  |  | Active | 5.46
31 | CC(=O)N1CCN(c2ccc(OC[C@H]3CO[C@](Cn4ccnc4)(c4ccc(Cl)cc4Cl)O3)cc2)CC1 (racemic) [CHEMBL75] | Inactive | 4.62 |  | 
32 | COc1ccccc1C(=O)N/N=C/c1cccnc1 [CHEMBL2382042] |  |  | Active | 5.71
33 | CCCC/C=C/C=C/c1nc2ccc(OC)cc2n2cccc12 [CHEMBL3260216] |  |  | Active | 5.36
34 | O=C(/C=C/c1ccc(-n2ccnc2)cc1)c1ccc(F)c(F)c1 [CHEMBL569571] |  |  | Active | 5.54
35 | Cc1ncc(-c2ccnc(Nc3ccc(S(C)(=O)=O)cc3)n2)n1C(C)C [CHEMBL488436] |  |  | Active | 5.50
36 | CC1(C)Cc2c(Br)ccc(O)c2C=N1 [CHEMBL1275726] | Inactive | 4.00 |  | 
37 | COCCOC(=O)C1=C(C)NC(C)=C(C(=O)OC(C)C)C1c1cccc([N+](=O)[O-])c1 (centres unmarked) [CHEMBL1428] | Inactive | 4.51 |  | 
38 | COc1cccc2cc(C=O)cc(O)c12 [CHEMBL2071232] | Inactive | 4.00 |  | 
39 | COc1ccccc1-c1nc2ccccn2c1-c1ccccc1 [CHEMBL2151883] | Inactive | 4.74 |  | 
40 | COc1ccc(/C=N/NC(=O)c2ccccc2OC)cc1OC [CHEMBL2382040] | Inactive | 4.88 |  | 
41 | CC(c1ccccc1)N1CN(CCO)CSC1=S (centres unmarked) [CHEMBL4279631] | Inactive | 4.49 |  | 
42 | COc1cccc(C(=O)/C=C/c2ccc(-n3ccnc3)cc2)c1 [CHEMBL569119] |  |  | Active | 5.49

Row | Structure (SMILES) | Outcome (L. major [1]; [3]) | pIC50 Value (L. major [2]; [4]) | Outcome (L. major [1]; [5]) | pIC50 Value (L. major [2]; [6])
43 | O=C(CCl)Nc1cc(Cl)ccc1Oc1ccccc1 [CHEMBL3759632] | Inactive | 4.37 |  | 
44 | CNc1ccc(Nc2c3ccccc3nc3ccccc23)cc1OC [CHEMBL92157] |  |  | Active | 5.44
45 | O=[N+]([O-])c1ccccc1-c1nc2ccccc2[nH]1 [CHEMBL209918] |  |  | Active | 5.54
46 | C/C(=N/NC(N)=S)c1ccc(OCc2cn(-c3ccc(C(=O)O)cc3)nn2)cc1 [CHEMBL4169531] | Active | 5.13 |  | 
47 | c1ccc2[nH]c(-c3ccncc3)nc2c1 [CHEMBL379376] |  |  | Active | 5.35
48 | C/C=C/C=C/c1nc2cccc(OC)c2n2cccc12 [CHEMBL3260209] |  |  | Active | 5.48
49 | CC(=O)CCCCCCCCCC[C@H]1CC[C@@H](O)[C@@H](C)N1 [CHEMBL2262843] | Active | 5.27 |  | 
50 | CC1=C2C(=O)c3c(O)ccc(O)c3CC2(C)CCC1=O (centres unmarked) [CHEMBL255104] | Inactive | 3.52 |  | 
51 | Cc1ccc2cc(/C=C/C(=O)c3sccc3Cl)c(Cl)nc2c1 [CHEMBL1940855] |  |  | Active | 5.77
52 | CCCCCCN(C)c1ccc(Nc2c3ccc(N(C)C)cc3nc3cc(N(C)C)ccc23)cc1 [CHEMBL88461] |  |  | Active | 7.15
53 | O=[N+]([O-])c1ccc2nc(-c3ccc[nH]3)[nH]c2c1 [CHEMBL2297906] |  |  | Active | 5.40
54 | Clc1ccc2c(N3CCN(Cc4ccccc4)CC3)ccnc2c1 [CHEMBL1256765] | Inactive | 4.21 |  | 
55 | Cl.O=[N+]([O-])c1ccc(-c2nnc(N3CCN(c4ccc(C5=NCCCN5)cc4)CC3)s2)o1 [CHEMBL1783211] | Inactive | 3.70 |  | 
56 | NP(=O)(OCc1ccc([N+](=O)[O-])cn1)N(CCCl)CCCl (centres unmarked) [CHEMBL2158073] | Active | 5.08 |  | 
57 | C/C=C/C=C/c1nc2ccc(OC)cc2n2cccc12 [CHEMBL3260208] |  |  | Active | 5.57
58 | COc1ccc([C@@H]2COc3c(ccc4c3C=CC(C)(C)O4)C2)c(OC)c1O [CHEMBL498725] | Inactive | 4.63 |  | 
59 | CC(=O)CCCCCCCCCCCC[C@H]1CC[C@@H](O)[C@@H](C)N1 [CHEMBL249464] | Inactive | 4.12 |  | 
60 | CCCCCCNc1ccc(Nc2c3ccc(Cl)cc3nc3ccc(OC)cc23)cc1 [CHEMBL420434] |  |  | Active | 6.70
61 | COc1ccc(CCN(C)CCCC(C#N)(c2ccc(OC)c(OC)c2)C(C)C)cc1OC (centres unmarked) [CHEMBL6966] |  | 4.39 |  | 
62 | CCOC(=O)C1=C(COCCN)NC(C)=C(C(=O)OC)C1c1ccccc1Cl (centres unmarked) [CHEMBL1491] |  |  |  | 5.47
